# Laboratory results reported in patent US12630534B2 (TAKEDA PHARMACEUTICAL COMPANY LIMITED, priority 2020, dated 2026).
# Legend:
# human GPR139 [1] = biological target: T1, human GPR139 (Homo sapiens, UniProt Q6DWJ6); assay: Inhibition rate of the amount of IP1 in GPR139-expressed CHO cells (inverse agonist assay, Test Example 2); assay type: cell-based; settings: relative value, inhibition rate of Example Compound 2 in Test Example 1 defined as 100%; for inhibition at 30 µM: CHO
# T1 construct: expressed in transfected cells; host or cells: CHO-TREx (Life Technologies) cells, expression induced with doxycycline
# T1 sequence (Q6DWJ6 1-353): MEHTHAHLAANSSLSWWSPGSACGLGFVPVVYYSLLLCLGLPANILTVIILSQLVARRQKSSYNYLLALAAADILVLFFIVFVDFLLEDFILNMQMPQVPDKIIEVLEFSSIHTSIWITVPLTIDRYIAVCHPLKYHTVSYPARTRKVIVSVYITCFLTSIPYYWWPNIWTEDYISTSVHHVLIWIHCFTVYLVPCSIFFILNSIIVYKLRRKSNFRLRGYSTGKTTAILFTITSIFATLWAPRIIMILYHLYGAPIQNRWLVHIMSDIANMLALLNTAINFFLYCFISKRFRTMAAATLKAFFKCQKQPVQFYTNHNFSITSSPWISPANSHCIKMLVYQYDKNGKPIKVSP
# Method in brief: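 IP1 accumulation read by IP-One HTRF after 40 min compound exposure at 37° C in stimulation buffer, 2000 cells/well, GPR139 expression induced the day before with doxycycline. Results given as relative inhibition rate, normalised to a reference compound set at […].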
# human GPR139 [2] = biological target: T1, human GPR139; assay: Inhibition rate of the amount of IP1 in GPR139-expressed CHO cells (Test Example 1, IP-ONE HTRF assay); assay type: cell-based
# Procedure: Measurement of the Inhibition Rate of the Amount of IP1 in 30 μM of the Compound of Example 2 in GPR139-Expressed CHO Cells
# Changes in the amount of IP1 in GPR139-expressed CHO cells were measured in order to evaluate the activity of the compound via GPR139. GPR139 is a Gq-coupled receptor which varies intracellular calcium (Liu C et al., Mol Pharmacol. 2015 November; 88(5):911-25), so the amount of IP1, which is a stable metabolite of the second messenger IP3, changes due to activity regulation of GPR139. GPR139 is considered to be […] when expressed recombinantly in mammal cells, so a compound having a GPR139 receptor inverse agonist action is expected to reduce the amount of IP1 production.
# The measurement of IP1 was made using an IP-ONE HTFR assay kit (cis-bio) and CHO-TREx (Life Technologies) cells stably transfected with GPR139. The CHO-TREx cells expressed human GPR139 with a tetracycline-inducing element. […]
# The compound was diluted with the stimulation buffer, and 4 μL was added to a 384-well white assay plate (Greiner). […] After the fluorescence strengths of two wavelengths were measured by the HTRF settings of Envision (PerkinElmer), the value of Ratio={(Signal 665 nm)/(Signal 615 nm)}×10000 was calculated.
Structure (SMILES),inhibition at 30 µM (human GPR139 [1]) [%],Inhibition Rate at 30 μM (human GPR139 [1]) [%],GPR139 receptor inverse agonist action (result in words) (human GPR139 [2])
"CCn1cc(Cn2ccn(-c3cc(N4CCO[C@H](C)C4)cc(C(F)(F)F)c3F)c2=O)cn1 [Example 2, 1-[(1-Ethyl-1H-pyrazole-4-yl)methyl]-3-{2-fluoro-5-[(2R)-2-methylmorpholine-4-yl]-3-(trifluoromethyl)phenyl}-1,3-dihydro-2H-imidazole-2-one]",100,–,exhibits GPR139 receptor inverse agonist action
"CCn1cc(Cn2cnn(-c3cc(OCC4CC(F)(F)C4)cc(C(F)(F)F)c3F)c2=O)cn1 [Example 151, 2-{5-[(3,3-difluorocyclobutyl)methoxy]-2-fluoro-3-(trifluoromethyl)phenyl}-4-[(1-ethyl-1H-pyrazol-4-yl)methyl]-2,4-dihydro-3H-1,2,4-triazol-3-one]",98,–,–
"CCn1cc(Cn2ccn(-c3cc(N4CCC(F)(F)CC4)cc(N4CCC(F)(F)CC4)c3F)c2=O)cn1 [Example 152, 1-[3,5-bis(4,4-difluoropiperidin-1-yl)-2-fluorophenyl]-3-[(1-ethyl-1H-pyrazol-4-yl)methyl]-1,3-dihydro-2H-imidazol-2-one]",98,–,–
"CCn1cc(Cn2ccn(-c3cc(N4CCO[C@H](C)C4)cc(OC(F)(F)F)c3F)c2=O)cn1 [Example 153, 1-[(1-ethyl-1H-pyrazol-4-yl)methyl]-3-{2-fluoro-5-[(2R)-2-methylmorpholin-4-yl]-3-(trifluoromethoxy)phenyl}-1,3-dihydro-2H-imidazol-2-one]",100,–,–
"CCn1cc(Cn2c(C)nn(-c3cc(C(F)(F)F)c(F)c(N4CCC(F)(F)CC4)n3)c2=O)cn1 [Example 154, 2-[6-(4,4-difluoropiperidin-1-yl)-5-fluoro-4-(trifluoromethyl)pyridin-2-yl]-4-[(1-ethyl-1H-pyrazol-4-yl)methyl]-5-methyl-2,4-dihydro-3H-1,2,4-triazol-3-one]",98,–,–
"CCn1cc(Cn2c(Cl)nn(-c3cc(N4CCO[C@H](C)C4)cc(C(F)(F)F)c3F)c2=O)cn1 [Example 155, 5-chloro-4-[(1-ethyl-1H-pyrazol-4-yl)methyl]-2-{2-fluoro-5-[(2R)-2-methylmorpholin-4-yl]-3-(trifluoromethyl)phenyl}-2,4-dihydro-3H-1,2,4-triazol-3-one]",101,–,–
"CCc1cn(Cc2cnn(CC)c2)c(=O)n1-c1cc(C(F)(F)F)cc(N2CCO[C@H](C)C2)n1 [Example 157, 4-ethyl-1-[(1-ethyl-1H-pyrazol-4-yl)methyl]-3-{6-[(2R)-2-methylmorpholin-4-yl]-4-(trifluoromethyl)pyridin-2-yl}-1,3-dihydro-2H-imidazol-2-one]",101,–,–
"Cc1nn(-c2cc(N3CCO[C@H](C)C3)cc(OC(F)(F)F)c2F)c(=O)n1Cc1cnn(C(C)C)c1 [Example 159, 2-{2-fluoro-5-[(2R)-2-methylmorpholin-4-yl]-3-(trifluoromethoxy)phenyl}-5-methyl-4-{[1-(propan-2-yl)-1H-pyrazol-4-yl]methyl}-2,4-dihydro-3H-1,2,4-triazol-3-one]",99,–,–
"CCn1cc(Cn2c(C)nn(-c3cc(N4CCC(F)(F)CC4)cc(C(F)(F)F)c3C)c2=O)cn1 [Example 161, 2-[5-(4,4-difluoropiperidin-1-yl)-2-methyl-3-(trifluoromethyl)phenyl]-4-[(1-ethyl-1H-pyrazol-4-yl)methyl]-5-methyl-2,4-dihydro-3H-1,2,4-triazol-3-one]",100,–,–
"CCn1cc(Cn2c(C)c(C)n(-c3cc(C4CC4)cc(N4CCO[C@H](C)C4)n3)c2=O)cn1 [Example 162, 1-{4-cyclopropyl-6-[(2R)-2-methylmorpholin-4-yl]pyridin-2-yl}-3-[(1-ethyl-1H-pyrazol-4-yl)methyl]-4,5-dimethyl-1,3-dihydro-2H-imidazol-2-one]",101,–,–
"CCn1cc(Cn2c(C)c(C)n(-c3cccc(N4CCO[C@H](C)C4)n3)c2=O)cn1 [Example 163, 1-[(1-ethyl-1H-pyrazol-4-yl)methyl]-4,5-dimethyl-3-{6-[(2R)-2-methylmorpholin-4-yl]pyridin-2-yl}-1,3-dihydro-2H-imidazol-2-one]",96,–,–
"CCn1cc(Cn2c(C)cn(-c3cc(N4CCOC(C)(C)C4)cc(Cl)c3F)c2=O)cn1 [Example 166, 1-[3-chloro-5-(2,2-dimethylmorpholin-4-yl)-2-fluorophenyl]-3-[(1-ethyl-1H-pyrazol-4-yl)methyl]-4-methyl-1,3-dihydro-2H-imidazol-2-one]",98,–,–

# Continued, in another order:
inhibition at 30 µM (human GPR139 [1]) [%],Inhibition Rate at 30 μM (human GPR139 [1]) [%],Structure (SMILES),GPR139 receptor inverse agonist action (result in words) (human GPR139 [2])
98,–,"CCn1cc(Cn2ccn(-c3cc(N4CCC(F)(F)CC4)cc(C4CC4(F)F)c3F)c2=O)cn1 (stereo not shown) [Example 156, 1-[3-(2,2-difluorocyclopropyl)-5-(4,4-difluoropiperidin-1-yl)-2-fluorophenyl]-3-[(1-ethyl-1H-pyrazol-4-yl)methyl]-1,3-dihydro-2H-imidazol-2-one]",–
–,98,"CCn1cc(Cn2ccn(-c3cc(N4CCC(F)(F)CC4)cc(C4CC4(F)F)c3F)c2=O)cn1 (stereo not shown) [Example 158, 1-[3-(2,2-difluorocyclopropyl)-5-(4,4-difluoropiperidin-1-yl)-2-fluorophenyl]-3-[(1-ethyl-1H-pyrazol-4-yl)methyl]-1,3-dihydro-2H-imidazol-2-one]",–
98,–,"CCn1cc(Cn2cc(C)n(-c3cc(C4CC4)c(F)c(N4CCO[C@H](C)C4)c3)c2=O)cn1 [Example 160, 3-{3-cyclopropyl-4-fluoro-5-[(2R)-2-methylmorpholin-4-yl]phenyl}-1-[(1-ethyl-1H-pyrazol-4-yl)methyl]-4-methyl-1,3-dihydro-2H-imidazol-2-one]",–
97,–,"CCn1cc(Cn2c(C)cn(-c3cc(N4CCOC(C)(C)C4)cc(C4CC4)c3F)c2=O)cn1 [Example 164, 1-[3-cyclopropyl-5-(2,2-dimethylmorpholin-4-yl)-2-fluorophenyl]-3-[(1-ethyl-1H-pyrazol-4-yl)methyl]-4-methyl-1,3-dihydro-2H-imidazol-2-one]",–
97,–,"CCn1cc(Cn2c(C)cn(-c3cc(N4CCC(F)(F)CC4)cc(C4CC4)c3F)c2=O)cn1 [Example 165, 1-[3-cyclopropyl-5-(4,4-difluoropiperidin-1-yl)-2-fluorophenyl]-3-[(1-ethyl-1H-pyrazol-4-yl)methyl]-4-methyl-1,3-dihydro-2H-imidazol-2-one]",–
97,–,"CCn1cc(Cn2c(C)cn(-c3cc(N4CCC(F)(F)CC4)cc(Cl)c3F)c2=O)cn1 [Example 167, 1-[3-chloro-5-(4,4-difluoropiperidin-1-yl)-2-fluorophenyl]-3-[(1-ethyl-1H-pyrazol-4-yl)methyl]-4-methyl-1,3-dihydro-2H-imidazol-2-one]",–
